Measurements reported in ChEMBL document CHEMBL2424635, “Discovery of novel histidine-derived lipo-amino acids: applied in the synthesis of ultra-short antimicrobial peptidomimetics having potent antimicrobial activity, salt resistance and protease stability” (Eur J Med Chem, 2013).
≈ marks a conversion by molar mass, not a printed value. Calls of active or inactive are those of the source. No cut-off for these calls is given here.

What was measured:
[1] = system: Staphylococcus aureus; experiment: Antibacterial activity against methicillin-resistant Staphylococcus aureus CCARM 3090 assessed as growth inhibition after 18 to 20 hrs by broth microdilution method; type: functional
[2] = system: Staphylococcus epidermidis; experiment: Antibacterial activity against Staphylococcus epidermidis KCTC 1917 assessed as growth inhibition after 18 to 20 hrs by broth microdilution method in presence of NaCl; type: functional
[3] = system: Salmonella typhimurium; experiment: Antibacterial activity against Salmonella typhimurium KCTC 1926 assessed as growth inhibition after 18 to 20 hrs by broth microdilution method in presence of NaCl; type: functional, Salmonella enterica subsp. enterica serovar Typhimurium; settings: Salmonella enterica
[4] = system: Staphylococcus aureus; experiment: Antibacterial activity against methicillin-resistant Staphylococcus aureus CCARM 3089 assessed as growth inhibition after 18 to 20 hrs by broth microdilution method; type: functional
[5] = system: Staphylococcus aureus; experiment: Antibacterial activity against methicillin-resistant Staphylococcus aureus CCARM 3095 assessed as growth inhibition after 18 to 20 hrs by broth microdilution method; type: functional
[6] = system: Escherichia coli; experiment: Antibacterial activity against Escherichia coli KCTC 1682 assessed as growth inhibition after 18 to 20 hrs by broth microdilution method in presence of NaCl; type: functional
[7] = system: Pseudomonas aeruginosa; experiment: Antibacterial activity against Pseudomonas aeruginosa KCTC 1637 assessed as growth inhibition after 18 to 20 hrs by broth microdilution method in presence of NaCl; type: functional
[8] = system: Salmonella typhimurium; experiment: Antibacterial activity against Salmonella typhimurium KCTC 1926 assessed as growth inhibition after 18 to 20 hrs by broth microdilution method; type: functional, Salmonella enterica subsp. enterica serovar Typhimurium; settings: Salmonella enterica
[9] = Hemolytic activity in human RBC assessed as hemoglobin release after 1 hr; type: ADME, cell-based, Erythrocyte; settings: red blood cells (RBC)
[10] = system: Pseudomonas aeruginosa; experiment: Antibacterial activity against Pseudomonas aeruginosa KCTC 1637 assessed as growth inhibition after 18 to 20 hrs by broth microdilution method; type: functional
[11] = system: Staphylococcus epidermidis; experiment: Antibacterial activity against Staphylococcus epidermidis KCTC 1917 assessed as growth inhibition after 18 to 20 hrs by broth microdilution method; type: functional
[12] = system: Escherichia coli; experiment: Antibacterial activity against Escherichia coli KCTC 1682 assessed as growth inhibition after 18 to 20 hrs by broth microdilution method; type: functional
[13] = system: Staphylococcus aureus; experiment: Antibacterial activity against Staphylococcus aureus KCTC 1621 assessed as growth inhibition after 18 to 20 hrs by broth microdilution method in presence of NaCl; type: functional
[14] = system: Bacillus subtilis; experiment: Antibacterial activity against Bacillus subtilis KCTC 3068 assessed as growth inhibition after 18 to 20 hrs by broth microdilution method in presence of NaCl; type: functional
[15] = system: Bacillus subtilis; experiment: Antibacterial activity against Bacillus subtilis KCTC 3068 assessed as growth inhibition after 18 to 20 hrs by broth microdilution method; type: functional
[16] = system: Staphylococcus aureus; experiment: Antibacterial activity against Staphylococcus aureus KCTC 1621 assessed as growth inhibition after 18 to 20 hrs by broth microdilution method; type: functional
[17] = system: Escherichia coli; experiment: Antibacterial activity against Escherichia coli KCTC 1682 assessed as growth inhibition at 50 ug/ml after 18 to 20 hrs by broth microdilution method in presence of trypsin; type: functional, organism-based
[18] = system: Staphylococcus aureus; experiment: Antibacterial activity against Staphylococcus aureus KCTC 1621 assessed as growth inhibition at 50 ug/ml after 18 to 20 hrs by broth microdilution method in presence of trypsin; type: functional, organism-based
[19] = system: Escherichia coli; experiment: Antibacterial activity against Escherichia coli KCTC 1682 assessed as disruption of cellular structure at 3 x MIC after 1 hr by transmission electron microscopic analysis; type: functional, organism-based
[20] = system: Staphylococcus aureus; experiment: Antibacterial activity against Staphylococcus aureus KCTC 1621 assessed as disruption of cellular structure at 3 x MIC after 1 hr by transmission electron microscopic analysis; type: functional, organism-based

SMILES	MIC [1] [µg/mL]	MIC [2] [µg/mL]	MIC [3] [µg/mL]	MIC [4] [µg/mL]	MIC [5] [µg/mL]	MIC [6] [µg/mL]	MIC [7] [µg/mL]	MIC [8] [µg/mL]	HC50 at 1 h [9] [µg/mL]	MIC [10] [µg/mL]	MIC [11] [µg/mL]	MIC [12] [µg/mL]	MIC [13] [µg/mL]	MIC [14] [µg/mL]	MIC [15] [µg/mL]	MIC [16] [µg/mL]	growth inhibition (GI) [17]	growth inhibition (GI) [18]	Activity [19]	Activity [20]
CCCCCCC/C=C/Cn1cncc1C[C@H](NC(=O)[C@@H](N)CCCNC(=N)N)C(=O)N[C@@H](CCCNC(=N)N)C(N)=O	16 (≈ 26.5 µM)	64	64	16 (≈ 26.5 µM)	16 (≈ 26.5 µM)	> 64	64	64 (≈ 106 µM)	> 256	32 (≈ 52.9 µM)	4 (≈ 6.61 µM)	32 (≈ 52.9 µM)	32	16	4 (≈ 6.61 µM)	8 (≈ 13.2 µM)				
CCCCCCCCCCn1c[n+](CCCCCCCCCC)cc1C[C@H](N)C(=O)N[C@@H](CCCNC(=N)N)C(N)=O	4	2	8	2	2	8	8	4	49	8	2	4	2	2	2	2	Active	Active		
CCCCCCCCCCn1cncc1C[C@H](NC(=O)[C@@H](N)CCCNC(=N)N)C(=O)N[C@@H](CCCNC(=N)N)C(N)=O	8 (≈ 13.2 µM)	32	> 64	8 (≈ 13.2 µM)	8 (≈ 13.2 µM)	> 64	16	32 (≈ 52.7 µM)	> 256	16 (≈ 26.4 µM)	2 (≈ 3.3 µM)	16 (≈ 26.4 µM)	32	8	2 (≈ 3.3 µM)	4 (≈ 6.59 µM)	Active	Active		
CC[C@H](C)[C@H](NC(=O)CN)C(=O)NCC(=O)N[C@@H](C)C(=O)N[C@H](C(=O)N[C@@H](CC(C)C)C(=O)N[C@@H](CCCCN)C(=O)N[C@H](C(=O)N[C@@H](CC(C)C)C(=O)N[C@H](C(=O)N[C@H](C(=O)NCC(=O)N[C@@H](CC(C)C)C(=O)N1CCC[C@H]1C(=O)N[C@@H](C)C(=O)N[C@@H](CC(C)C)C(=O)N[C@H](C(=O)N[C@@H](CO)C(=O)N[C@@H](Cc1c[nH]c2ccccc12)C(=O)N[C@H](C(=O)N[C@@H](CCCCN)C(=O)N[C@@H](CCCNC(=N)N)C(=O)N[C@@H](CCCCN)C(=O)N[C@@H](CCCNC(=N)N)C(=O)N[C@@H](CCC(N)=O)C(=O)N[C@@H](CCC(N)=O)C(N)=O)[C@@H](C)CC)[C@@H](C)CC)[C@@H](C)O)[C@@H](C)O)C(C)C)C(C)C																	inactive	inactive		
CCCCCCCCCCn1c[n+](CCCCCCCCCC)cc1C[C@H](NC(=O)[C@@H](N)CCCNC(=N)N)C(=O)N[C@@H](CCCNC(=N)N)C(N)=O	4	4	16	8	4	16	8	8	121	8	4	8	4	4	4	4	Active	Active	Active	Active
CCCCCCCn1c[n+](CCCCCCC)cc1C[C@H](NC(=O)[C@@H](N)CCCNC(=N)N)C(=O)N[C@@H](CCCNC(=N)N)C(N)=O	8	16	32	4	4	> 32	8	8	> 256	8	2	4	8	8	2	4	Active	Active	Active	Active
CCCCCCCCCCCCCCn1c[n+](CCCCCCCCCCCCCC)cc1C[C@H](NC(=O)[C@@H](N)CCCNC(=N)N)C(=O)N[C@@H](CCCNC(=N)N)C(N)=O	> 64	> 64	> 64	> 64	> 64	> 64	> 64	> 64	> 256	> 64	> 64	> 64	> 64	> 64	> 64	> 64				
CC[C@H](C)[C@H](NC(=O)[C@H](CCCCN)NC(=O)[C@H](CCC(=O)O)NC(=O)[C@H](CCCCN)NC(=O)[C@H](CO)NC(=O)[C@H](CCCCN)NC(=O)[C@H](CCCNC(=N)N)NC(=O)[C@H](Cc1ccccc1)NC(=O)[C@H](Cc1ccccc1)NC(=O)[C@H](CC(=O)O)NC(=O)CNC(=O)[C@H](CC(C)C)NC(=O)[C@@H](N)CC(C)C)C(=O)NCC(=O)N[C@@H](CCCCN)C(=O)N[C@@H](CCC(=O)O)C(=O)N[C@@H](Cc1ccccc1)C(=O)N[C@@H](CCCCN)C(=O)N[C@@H](CCCNC(=N)N)C(=O)N[C@H](C(=O)N[C@H](C(=O)N[C@@H](CCC(N)=O)C(=O)N[C@@H](CCCNC(=N)N)C(=O)N[C@H](C(=O)N[C@@H](CCCCN)C(=O)N[C@@H](CC(=O)O)C(=O)N[C@@H](Cc1ccccc1)C(=O)N[C@@H](CC(C)C)C(=O)N[C@@H](CCCNC(=N)N)C(=O)N[C@@H](CC(N)=O)C(=O)N[C@@H](CC(C)C)C(=O)N[C@H](C(=O)N1CCC[C@H]1C(=O)N[C@@H](CCCNC(=N)N)C(=O)N[C@H](C(=O)N[C@@H](CCC(=O)O)C(=O)N[C@@H](CO)C(N)=O)[C@@H](C)O)C(C)C)[C@@H](C)CC)C(C)C)[C@@H](C)CC	> 32	> 64	32	> 32	> 32	16	64	16 (≈ 3.56 µM)	> 256	64 (≈ 14.2 µM)	16 (≈ 3.56 µM)	32 (≈ 7.12 µM)	> 64	16	32 (≈ 7.12 µM)	32 (≈ 7.12 µM)	inactive	inactive		
CCCCCCCCCCn1c[n+](CCCCCCCCCC)cc1C[C@H](N)C(=O)N[C@@H](CCCNC(=N)N)C(=O)N[C@@H](CCCNC(=N)N)C(N)=O	4	4	16	4	4	16	8	8	110	8	4	8	8	4	4	4	Active	Active	Active	Active
CCCCCCCCCCn1c[n+](CCCCCCCCCC)cc1C[C@H](NC(=O)[C@H](CCCNC(=N)N)NC(=O)[C@@H](N)CCCNC(=N)N)C(N)=O	8	4	16	8	8	16	8	8	116	8	8	16	4	4	8	8	Active	Active	Active	Active
